Patent US20230414735A1, “NEOANTIGENS AND METHODS OF THEIR USE” (priority 2016, published 2023)
Like-named read-outs stand apart in the source and are kept apart here. Where no end group is shown, it is not given here.

Assays:
[1] = system: HLA Class I molecules; assay: HLA class I binding stability assay (pMHC-I complex dissociation, 125I-labeled β2m, scintillation counts); parameters: species or system human
[2] = target: HLA class I molecule; assay: HLA class I peptide binding affinity assay (inhibition of 125I-radiolabeled probe peptide binding to purified HLA); parameters: species or system human; details: read-out: Observed Affinity (IC50, (nM))
Experimental: Epstein-Barr virus (EBV)-transformed homozygous cell lines, fibroblasts, CIR, or 721.22 transfectants are used as sources of HLA class I molecules. […] HLA molecules are purified from lysates by affinity chromatography. The lysates are passed over a column of Sepharose CL-4B beads coupled to an appropriate antibody. […] A 1/25 volume of 2.0 M Tris, pH 6.8, is added to the eluate to reduce the pH to […]. Eluates are then concentrated by centrifugation in Centriprep 30 concentrators (Amicon, Beverly, MA). Protein content is evaluated by a BCA protein assay (Pierce Chemical Co., Rockford, IL) and confirmed by SDS-PAGE.
Following incubation, MHC-peptide complexes are separated from free peptide by gel filtration on 7.8 mm×15 cm TSK200 columns (TosoHaas 16215, Montgomeryville, PA). Because the large size of the radiolabeled peptide used for the DRB1*1501 (DR2w2(31) assay makes separation of bound from unbound peaks more difficult under these conditions, all DRB1*1501 (DR2w2(31) assays were performed using a 7.8 mm×30 cm TSK2000 column eluted at 0.6 mLs/min. The eluate from the TSK columns is passed through a Beckman 170 radioisotope detector, and radioactivity is plotted and integrated using a Hewlett-Packard 3396A integrator, and the fraction of peptide bound is determined.
Radiolabeled peptides are iodinated using the chloramine-T method. […] All subsequent inhibition and direct binding assays are performed using these HLA concentrations.
Since under these conditions [label]<[HLA] and IC50≥[HLA], the measured IC50 values are reasonable approximations of the true KD values. […] For database purposes, and inter-experiment comparisons, relative binding values are compiled. These values can subsequently be converted back into IC50 nM values by dividing the IC50 nM of the positive controls for inhibition by the relative binding of the peptide of interest.
HLA binding assays were used to evaluate either the affinity of interaction of a given epitope with a selected HLA molecule or the stability.
The measurements are plotted against the predicted affinity in FIG. 1.

[3] = system: HLA-A02:01+ T cells (CD8+ T cells); assay: Immunogenicity assay: CD8+ T cell expansion with peptide-loaded monocyte-derived dendritic cells, multimer/tetramer staining; assay type: cell-based, human; details: HLA-A02:01^+ T cells co-cultured 10 days with peptide-loaded monocyte-derived dendritic cells; initial and validation multimer preparations; shown as examples of positive multimer staining (FIGS. 3-6)
[4] = allele A02.01, pMHC-I dissociation at 37° C.

Compound	Stability (T1/2 (h)) [1, 4]	IC50 ([2]; allele A02.01)	Stability (T1/2 (h)) ([1]; allele A02.01, 37° C.)	further results
KGPELFPLI	0.3 h	101 nM		Stability (T1/2 (h)) ([1]; allele A24.02, pMHC-I dissociation at 37° C.): 1.7 h; IC50 ([2]; allele A24.02): 14 nM
CC(C)C[C@H](NC(=O)[C@@H](NC(=O)[C@H](CC(=O)O)NC(=O)[C@H](CC(C)C)NC(=O)[C@@H](NC(=O)[C@@H](N)Cc1ccc(O)cc1)[C@@H](C)O)C(C)C)C(=O)N[C@@H](CCC(=O)O)C(=O)N[C@@H](CCCNC(=N)N)C(=O)N[C@@H](CS)C(=O)O		1760 nM	6.6 h	
YLGNHMNIA		117 nM	0.6 h	IC50 ([2]; allele B08.01): 872 nM
PLNDLLLEM	4.2 h	151 nM		
ALNSEALSV [HLA-A02:01]				antigen-specific (multimer-double-positive) CD8^+ T cells, multimer staining [3]: antigen-specificity
LVVVGACGV		1210 nM	0.6 h	
MNIANLLGA		128 nM	0.3 h	
SLYIVGFYGA		390 nM	0.4 h	
FSGEYIPTV		3 nM	6.8 h	
LLQEFDVQEA		45 nM	2.5 h	
RVAKIADFGM	0.5 h	125 nM		Stability (T1/2 (h)) ([1]; allele B07.02, pMHC-I dissociation at 37° C.): 0.2 h

The remaining compounds from weak to strong by IC50 ([2]; allele A02.01), led by results:

Stability (T1/2 (h)) [1, 4]	IC50 ([2]; allele A02.01)	Stability (T1/2 (h)) ([1]; allele A02.01, 37° C.)	Compound	further results
0.9 h	2010 nM		PLCDLLLEML	
0.4 h	1610 nM		IMQLMPFGC	
0.6 h	1040 nM		CC(C)C[C@H](NC(=O)[C@H](CC(C)C)NC(=O)[C@H](CC(C)C)NC(=O)CNC(=O)[C@H](Cc1ccc(O)cc1)NC(=O)[C@H](CC(C)C)NC(=O)[C@@H]1CCCN1C(=O)[C@@H](NC(=O)[C@@H](N)C(C)C)C(C)C)C(=O)O	
	1030 nM	0.4 h	MNWRPILTII	
	728 nM	0.3 h	ALSASNSCF	
0.4 h	558 nM		GLLLEMLDA	
2.7 h	404 nM		PLSDLLLEM	
	187 nM	0.9 h	CC(C)[C@H](N)C(=O)N[C@H](C(=O)N1CCC[C@H]1C(=O)N[C@@H](CS)C(=O)N[C@@H](CCC(=O)O)C(=O)N1CCC[C@H]1C(=O)N1CCC[C@H]1C(=O)N[C@@H](CCC(=O)O)C(=O)N[C@H](C(=O)O)C(C)C)C(C)C	
	131 nM	1.9 h	VLHESNSPYI	
	68 nM	12.8 h	LLAFWDSQV	
	40 nM	0.4 h	WMTETLFDIV	IC50 ([2]; allele A01.01): 14400 nM
	10 nM	5.1 h	VLHECNSLYI	
	10 nM	14.2 h	GLLAFWDSQV	
14.3 h	6 nM		KLFSCLSFL	Stability (T1/2 (h)) ([1]; allele A03.01, pMHC-I dissociation at 37° C.): 0.8 h
	2 nM	16.5 h	VMAYVMAGV	
